Source: patent US12576168B2, “Peptide PET/SPECT probes specific to oncoproteins in tumor extracellular matrix” (CASE WESTERN RESERVE UNIVERSITY, priority 2019, dated 2026)
Ends that are not written are not given here. * marks the point of attachment. DOTA = O=C(O)CN1CCN(CC(=O)O)CCN(CC(=O)*)CCN(CC(=O)O)CC1; AEEA = NCCOCCOCC(=O)O

Key:
Water solubility = format: physicochemical
EDB-FN [1] = molecular target: T1, EDB-FN (Homo sapiens, UniProt P02751); assay: ZD2 peptide binding to prostate tissue; design: from tissue; host or cells: High-grade and low-grade prostate tumour and normal tissue
EDB-FN [2] = molecular target: T1, EDB-FN; assay: ZD2-Cy5.5 fluorescence binding to slides of human pancreatic cancer xenografts; design: incubation of ZD2-Cy5.5 with tumor slides of the above tumor xenografts; from tissue; host or cells: Sections of BXPC3, Capan-1, Panc 10.05 and Panc-1 tumour xenografts from female nude mice; normal pancreas and muscle as controls
Protocol: A ZD2 peptide (Thr-Val-Arg-The-Ser-Ala-Asp) targeted fluorescence tracer ZD2-Cy5.5 was synthesized according to a reported method to assess the binding of the peptide to EDB-FN in PaCa tumors. The binding specificity of ZD2 peptide to EDB-FN in pancreatic cancer has been tested by incubation of ZD2-Cy5.5 with tumor slides of the above tumor xenografts. […] ZD2 peptide is a promising targeting agent for specific binding of EDB-FN in PaCa tumors.

EDB-FN [3] = molecular target: T1, EDB-FN; assay: ZD2-Cy5.5 staining of human pancreatic specimens; format: binding; design: incubation of ZD2-Cy5.5 with tumor slides of the above tumor xenografts; from tissue; host or cells: Sections of BXPC3, Capan-1, Panc 10.05 and Panc-1 tumour xenografts from female nude mice; normal pancreas and muscle as controls
[4] = system: PC3 human prostate cancer xenografts; assay: PET/CT imaging of tracer uptake in PC3 tumors of tumor-bearing mice; format: in vivo
Protocol: (§1) The animal study has been approved by the Institutional Animal Care and Use Committee of the Case Western Reserve University (CWRU), […]. PC3 and LNCaP cells were acquired from the American Type Culture Collection (ATCC, Manassas, VA, USA) and cultured in Roswell Park Memorial Institute medium (Thermo Fisher Scientific, Waltham, MA) supplemented with 10% fetal bovine serum, 100 U/mL penicillin, and 0.1 mg/mL streptomycin in a humid incubator maintained at 37° C. and 5% CO2. Male athymic nude mice (4-6 weeks old) were acquired from the Case Comprehensive Cancer Center (Cleveland, OH, USA) and housed in the CWRU Animal Core Facility. Three million cells in high concentration Matrigel (Corning, Tewksbury, MA) were used for tumor inoculation. LNCaP cells were subcutaneously inoculated in the left flank of the mice. Four weeks later, PC3 cells were inoculated on the right flank of the same mice for PET imaging.
(§2) The radioisotope ^64Cu(II) was acquired from the University of Wisconsin-Madison (Madison, WI). The chelation of ZD2-PEG-DOTA with Cu(II) was first tested with cold CuCl2 in 0.1 N HCl aqueous solution under the same condition as radiolabeling. […] The formation of ZD2-DA-(Cu-DOTA) was verified by MALDI-TOF mass spectrometry (M+1: 1487.8, observed; 1486.04, calculated). […]

[5] = system: LNCaP human prostate cancer xenografts; assay: PET/CT imaging of tracer uptake in LNCaP tumors of tumor-bearing mice; format: in vivo; details: 22 h after injection, 7.4 MBq (200 μCi) per mouse i.v., N=4
Protocol: as §1, §2

T1 sequence (P02751 32-2477): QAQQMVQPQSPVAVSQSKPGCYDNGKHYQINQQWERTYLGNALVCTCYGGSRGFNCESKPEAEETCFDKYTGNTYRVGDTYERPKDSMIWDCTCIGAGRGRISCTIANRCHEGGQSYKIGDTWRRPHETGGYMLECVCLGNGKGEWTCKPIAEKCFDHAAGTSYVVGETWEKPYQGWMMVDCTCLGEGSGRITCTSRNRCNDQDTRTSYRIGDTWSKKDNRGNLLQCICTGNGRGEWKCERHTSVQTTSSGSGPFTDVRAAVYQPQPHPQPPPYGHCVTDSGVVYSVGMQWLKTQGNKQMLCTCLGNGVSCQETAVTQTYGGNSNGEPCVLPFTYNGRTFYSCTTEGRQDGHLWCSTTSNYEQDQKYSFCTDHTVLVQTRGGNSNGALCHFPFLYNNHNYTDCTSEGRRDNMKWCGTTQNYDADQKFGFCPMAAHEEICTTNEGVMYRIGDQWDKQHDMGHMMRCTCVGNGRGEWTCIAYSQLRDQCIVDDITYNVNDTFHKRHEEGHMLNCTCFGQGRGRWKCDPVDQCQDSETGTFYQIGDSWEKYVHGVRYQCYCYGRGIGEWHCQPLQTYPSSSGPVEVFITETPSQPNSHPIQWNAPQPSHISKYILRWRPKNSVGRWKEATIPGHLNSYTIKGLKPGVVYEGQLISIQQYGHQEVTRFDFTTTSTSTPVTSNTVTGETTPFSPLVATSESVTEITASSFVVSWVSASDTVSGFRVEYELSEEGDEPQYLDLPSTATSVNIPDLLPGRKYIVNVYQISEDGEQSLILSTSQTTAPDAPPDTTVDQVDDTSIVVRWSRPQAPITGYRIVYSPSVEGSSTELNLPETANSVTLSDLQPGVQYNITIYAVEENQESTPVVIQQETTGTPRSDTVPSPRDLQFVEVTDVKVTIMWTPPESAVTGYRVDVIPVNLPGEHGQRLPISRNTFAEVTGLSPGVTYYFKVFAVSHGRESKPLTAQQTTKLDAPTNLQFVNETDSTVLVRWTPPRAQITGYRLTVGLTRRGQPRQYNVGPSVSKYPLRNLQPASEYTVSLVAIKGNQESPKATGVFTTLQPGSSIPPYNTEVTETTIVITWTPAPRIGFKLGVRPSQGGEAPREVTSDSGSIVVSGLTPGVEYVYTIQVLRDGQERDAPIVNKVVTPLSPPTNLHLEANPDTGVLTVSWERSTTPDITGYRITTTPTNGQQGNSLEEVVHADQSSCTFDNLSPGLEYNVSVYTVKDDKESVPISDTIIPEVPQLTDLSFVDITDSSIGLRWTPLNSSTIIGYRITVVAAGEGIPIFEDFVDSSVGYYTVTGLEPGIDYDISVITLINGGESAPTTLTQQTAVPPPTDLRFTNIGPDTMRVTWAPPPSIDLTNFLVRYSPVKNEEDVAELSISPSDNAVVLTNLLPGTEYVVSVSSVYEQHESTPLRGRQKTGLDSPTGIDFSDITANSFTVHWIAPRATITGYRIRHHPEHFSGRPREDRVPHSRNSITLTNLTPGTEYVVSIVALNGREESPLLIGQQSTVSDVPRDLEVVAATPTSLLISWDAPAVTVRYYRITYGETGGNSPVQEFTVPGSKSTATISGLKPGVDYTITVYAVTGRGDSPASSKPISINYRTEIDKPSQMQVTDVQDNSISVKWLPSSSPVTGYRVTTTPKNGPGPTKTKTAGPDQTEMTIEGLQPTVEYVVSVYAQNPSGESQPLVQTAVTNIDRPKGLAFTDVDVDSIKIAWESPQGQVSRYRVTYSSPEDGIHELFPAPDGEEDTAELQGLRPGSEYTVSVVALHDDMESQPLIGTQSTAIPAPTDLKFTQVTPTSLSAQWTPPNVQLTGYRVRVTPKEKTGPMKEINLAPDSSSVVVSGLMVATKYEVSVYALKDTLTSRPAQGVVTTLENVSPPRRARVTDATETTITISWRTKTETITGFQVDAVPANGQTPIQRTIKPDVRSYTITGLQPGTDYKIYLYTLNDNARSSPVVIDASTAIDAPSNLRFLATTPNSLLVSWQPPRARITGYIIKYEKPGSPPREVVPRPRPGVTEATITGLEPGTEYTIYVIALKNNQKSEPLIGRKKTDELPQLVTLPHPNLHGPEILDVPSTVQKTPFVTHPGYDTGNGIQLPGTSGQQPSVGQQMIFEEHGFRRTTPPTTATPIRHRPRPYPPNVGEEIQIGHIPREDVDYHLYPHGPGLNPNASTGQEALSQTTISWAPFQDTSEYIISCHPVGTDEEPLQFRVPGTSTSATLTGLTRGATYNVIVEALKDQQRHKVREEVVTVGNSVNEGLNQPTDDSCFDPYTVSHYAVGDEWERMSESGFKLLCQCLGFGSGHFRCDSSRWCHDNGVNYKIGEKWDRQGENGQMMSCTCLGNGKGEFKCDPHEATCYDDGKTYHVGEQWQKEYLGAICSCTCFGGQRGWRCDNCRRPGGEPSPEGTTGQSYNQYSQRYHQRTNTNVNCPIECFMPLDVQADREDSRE

Q: With “TVRTSAD-OH [ZD2 peptide, Thr-Val-Arg-Thr-Ser-Ala-Asp]” as the substance, how does the water solubility (Water solubility) read?
A: highly water-soluble

Q: What about the “binding in normal tissue” value (EDB-FN [1]) of the same substance?
A: nonbinding

Q: And the “binding to low-grade tumor” value (EDB-FN [1])?
A: weak binding affinity

Q: And the “binding toward high-grade prostate tumor” value (EDB-FN [1])?
A: strong binding affinity

Q: Which results are given for “ZD2-Cy5.5: ZD2 peptide targeted fluorescence tracer synthesized according to a reported method (TVRTSAD; also: Cy5.5 fluorescence tracer attached, site not given here)”?
A: binding to EDB-FN in PaCa after pre-incubation with BC-1 anti-EDB-FN monoclonal antibody (EDB-FN [2]; BC-1/ZD2): blocked; binding to normal pancreas and muscle (EDB-FN [2]; tissue slides): No significant binding; binding to BXPC3, Capan-1, Panc 10.05 and Panc-1 tumor tissues (EDB-FN [2]; tumor xenograft slides): strong binding; fluorescence staining of precancerous pancreatic intraepithelial neoplasia (EDB-FN [3]; human PanIN): some fluorescence intensity; fluorescence staining of normal pancreas (EDB-FN [3]; human normal pancreas): little fluorescence; fluorescence staining of human PaCa specimen (EDB-FN [3]; human pancreatic cancer): strong red fluorescence

Q: Which results are given for “ZD2-DA-(^64Cu-DOTA): ZD2 peptide (TVRTSAD) linked via two repeats of 8-amino-3,6-dioxaoctanoic acid to DOTA, complexed with 64Cu ({DOTA-AEEA-AEEA}-TVRTSAD; also: 64Cu chelated by DOTA)”?
A: accumulation of PET tracer in PC3 tumors compared to LNCaP tumors ([4]; 22 h, P<0.05): over two-folds higher; accumulation of PET tracer in PC3 tumors (ROI) ([4]; 22 h after injection, 7.4 MBq (200 μCi) per mouse i.v., N=4): 7711±1994 Bq/mL; accumulation of PET tracer in LNCaP tumors (ROI) [5]: 3213±1511 Bq/mL
